Data set [1] is described as follows: Initial cytotoxicity testing (MTT test), VA-13. Type of data set: cell-based, human. As to conditions: human healthy cells, MTT, 72 h, two concentrations 50–100 µM. The protocol: (§1) Colon cancer (HCT116, HT29), breast cancer (MCF7, SKBR3), melanoma (SK-MEL28), lung cancer (A549), prostate cancer (DU145), human normal cells (VA-13 and HEK293), and murine mammary cell lines (EMT6) were purchased from ATCC (Manassas, VA, USA). Cells were routinely grown in RPMI 1640 culture medium, supplemented with 10% fetal bovine serum, glutamine, and 100 U/mL penicillin. HCT116, HT29, MCF7, SKBR3, SK-MEL28, A549, DU145, VA-13, HEK293, and EMT6 cells were grown in flasks in RPMI 1640 fresh culture medium with supplements at 37 °C and 5% CO2. Cells were grown as monolayer cultures, and the cells in the exponential growth phase were trypsinized and suspended in the supplemented RPMI 1640 medium.
(§2) To evaluate the cytotoxicity of the compounds, we placed cells in (20–30) × 10^3 cells/mL concentrations in 96-well culture plates for 24 h. Cells were counted after treatment with Trypan blue solution (0.4%). They were then exposed to two different concentrations of compounds 16–30 (50–100 µM) dilutions in pre-incubated cells at 37 °C for 72 h. In control wells with untreated cells, only (DMSO + PBS) was added. Cell viability was measured by the standard MTT test. The stock solutions of each compound were prepared in DMSO following by preparation of serial dilutions in PBS.
(§3) The absorbance was measured at 540 nm using a Multiskan™ FC microplate photometer and the Skanlt software 6.1 RE for microplate reader, both from Thermo Scientific (Waltham, MA, USA). Experiments were carried out in triplicate; to perform the statistical analysis, more concentrations should be evaluated.

Data set [2] in a line: Initial cytotoxicity testing (MTT test), HEK293. Type of data set: cell-based, human. The following applies: human healthy cells, MTT, 72 h, two concentrations 50–100 µM. The protocol:
as §1, §2, §3

The subject of data set [3] is A549. As to the kind of experiment: Initial cytotoxicity testing (MTT test), A549. Type of data set: cell-based, human. The following applies: Homo sapiens, A549, 72 h, read-out: cytotoxicity A549. The protocol: as §1, §2, §3
Data set [4] in a line: in vitro. The following applies: dog.
The subject of data set [5] is DU145. As to the kind of experiment: Initial cytotoxicity testing (MTT test), DU145. Type of data set: cell-based, human. As to conditions: Homo sapiens, DU-145, 72 h, read-out: cytotoxicity DU145. The protocol: as §1, §2, §3
Data set [6] has as its system influenza virus A/Puerto Rico/8/34 (H1N1). Kind of data set: Antiviral (cytoprotective) activity in MDCK cells, MTT. Type of data set: cell-based. The following applies: H1N1; infected MDCK cells, m.o.i. 0.01, 48 h, 50% cell protection; read-out: IC50.
Data set [7] deals with VA-13. Kind of data set: Initial cytotoxicity testing (MTT test), VA-13. The class given is cell-based, human. As to conditions: Homo sapiens, VA-13; normal cells, initial testing. The protocol: as §1, §2, §3
The subject of data set [8] is HEK293. Kind of data set: Initial cytotoxicity testing (MTT test), HEK293. The class given is cell-based, human. As to conditions: Homo sapiens, HEK293; normal cells, initial testing. The protocol: as §1, §2, §3

In paper PMC11545984, “1,3-Dipolar Cycloaddition of Nitrile Oxides and Nitrilimines to (−)-β-Caryophyllene: Stereoselective Synthesis of Polycyclic Derivatives and Their Biological Testing” (International Journal of Molecular Sciences, 2024) one finds IC50 and CC50 data, which are given here for 14 compounds.

Regarding `COc1ccc(C2=NO[C@]3(CC[C@@H]4C(c5ccc(OC)cc5)=NO[C@@]4(C)CC[C@@H]4[C@@H]3CC4(C)C)C2)cc1` [Compound 26, (3aR,6R,6aS,8aR,10aS)-3,3′-Bis(4-methoxyphenyl)-8,8,10a-trimethyl-3a,4,5,6a,7,8,8a,9,10,10a-decahydro-4′H-spiro[cyclobuta [5,6]cyclonona [1,2-d]isoxazole-6,5′-isoxazole]], the IC50 at 72 h in data set [1] and in data set [2] was > 50 µM each time. In addition, the values for the IC50 in data set [3], in data set [5] and in data set [6] were > 50 µM, > 50 µM and > 652 µM, respectively. The CC50 at 48 h in data set [4] is > 652 µM.

As to `C/C1=C\CC[C@@]2(CC(Br)=NO2)[C@H]2CC(C)(C)[C@@H]2CC1` [Compound 19a, (1S,2R,9R,E)-3′-Bromo-6,10,10-trimethyl-4′H-spiro[bicyclo [7.2.0]undecane-2,5′-isoxazol]-5-ene], the IC50 at 72 h in data set [1] and in data set [2] was > 50 µM throughout. Besides, the IC50 in data set [3] is > 50 µM; in data set [5], > 50 µM; in data set [6] it was > 12.3 µM. In data set [4], this compound returned a CC50 at 48 h of 19.6 ± 1.1 µM.

As for `C=C1CC[C@@H]2C(C)=NN(c3ccccc3)[C@@]2(C)CC[C@@H]2[C@@H]1CC2(C)C` [Compound 21b, (3aS,6aS,8aR,10aS)-3,8,8,10a-tetramethyl-6-methylene-1-phenyl-1,3a,4,5,6,6a,7,8,8a,9,10,10a-dodecahydrocyclobuta [6,7]cyclonona [1,2-c]pyrazole], the IC50 at 72 h in data set [1] and in data set [2] was > 50 µM throughout. In addition, the IC50 in data set [3] is > 50 µM; in data set [5], > 50 µM; in data set [6] it was > 297 µM. This compound returned a CC50 at 48 h in data set [4] of 375 ± 15.6 µM.

In the case of `COc1cccc(OC)c1C1=NN(c2c(Cl)cc(Cl)cc2Cl)[C@]2(CC[C@H]3C(c4c(OC)cccc4OC)=NN(c4c(Cl)cc(Cl)cc4Cl)[C@]3(C)CC[C@@H]3[C@@H]2CC3(C)C)C1` [Compound 30, (3aR,6R,6aS,8aR,10aR)-3,5′-Bis(2,6-dimethoxyphenyl)-8,8,10a-trimethyl-1,2′-bis(2,4,6-trichlorophenyl)-2′,3a,4,4′,5,6a,7,8,8a,9,10,10a-dodecahydro-1H-spiro[cyclobuta [6,7]cyclonona [1,2-c]pyrazole-6,3′-pyrazole]], the IC50 at 72 h in data set [1] and in data set [2] was > 50 µM in each case. The IC50 in data set [3] is > 50 µM; in data set [5], > 50 µM; in data set [6] it was 71 ± 8.8 µM. Further, the CC50 at 48 h in data set [4] is > 330 µM.

For the compound `CC1(C)C[C@H]2[C@H]1CC[C@]1(C)[C@@H](CC[C@@]23CC(c2ccccc2)=NN3c2ccccc2)C(c2ccccc2)=NN1c1ccccc1` [Compound 29, (3aR,6R,6aS,8aR,10aR)-8,8,10a-trimethyl-1,2′,3,5′-tetraphenyl-2′,3a,4,4′,5,6a,7,8,8a,9,10,10a-Dodecahydro-1H-spiro[cyclobuta [6,7]cyclonona [1,2-c]pyrazole-6,3′-pyrazole]], the IC50 at 72 h in data set [1] and in data set [2] was > 50 µM throughout. Also, the results for the IC50 in data set [3], in data set [5] and in data set [6] were > 50 µM, > 50 µM and 102 ± 12.6 µM, respectively. Besides, the CC50 at 48 h in data set [4] is > 506 µM.

For the compound `C/C1=C\CC[C@@]2(CC(c3ccc(Cl)cc3)=NO2)[C@H]2CC(C)(C)[C@@H]2CC1` [Compound 16a, (1S,2R,9R,E)-3′-(4-Chlorophenyl)-6,10,10-trimethyl-4′H-spiro[bicyclo [7.2.0]undecane-2,5′-isoxazol]-5-ene], the IC50 at 72 h in data set [1] and in data set [2] was > 50 µM each time. Moreover, the figures for the IC50 in data set [3], in data set [5] and in data set [6] were > 50 µM, > 50 µM and 9.8 ± 1.3 µM, respectively. The compound also showed a CC50 at 48 h in data set [4] of 125 ± 6.5 µM.

With `C=C1CC[C@H]2C(Br)=NO[C@]2(C)CC[C@@H]2[C@@H]1CC2(C)C` [Compound 19b, (3aR,6aS,8aR,10aR)-3-bromo-8,8,10a-trimethyl-6-methylene-3a,5,6,6a,7,8,8a,9,10,10a-decahydro-4H-cyclobuta [5,6]cyclonona [1,2-d]isoxazole], the CC50 at 48 h in data set [4] was 44.2 ± 3.6 µM. Besides, the IC50 in data set [6] is > 33.7 µM.

On to `C=C1CC[C@H]2C(c3c(OC)cccc3OC)=NN(c3c(Cl)cc(Cl)cc3Cl)[C@]2(C)CC[C@@H]2[C@@H]1CC2(C)C` [Compound 23b, (3aR,6aS,8aR,10aR)-3-(2,6-dimethoxyphenyl)-8,8,10a-trimethyl-6-methylene-1-(2,4,6-trichlorophenyl)-1,3a,4,5,6,6a,7,8,8a,9,10,10a-dodecahydrocyclobuta [6,7]cyclonona [1,2-c]pyrazole], for which the IC50 at 72 h in data set [1] and in data set [2] was > 50 µM in each case. Further, the IC50 in data set [3] is > 50 µM; in data set [5], > 50 µM; in data set [6], 178 ± 20.1 µM. Further, in data set [4], the CC50 at 48 h was > 535 µM.

As for `C=C1CC[C@H]2C(c3ccccc3)=NN(c3ccccc3)[C@]2(C)CC[C@@H]2[C@@H]1CC2(C)C` [Compound 22b, (3aR,6aS,8aR,10aR)-8,8,10a-trimethyl-6-methylene-1,3-diphenyl-1,3a,4,5,6,6a,7,8,8a,9,10,10a-dodecahydrocyclobuta [6,7]cyclonona [1,2-c]pyrazole], the IC50 in data set [7] was 50 to 100 µM; in data set [8], 50 to 100 µM; in data set [3] it was > 50 µM; in data set [5], > 50 µM; in data set [6], > 9.28 µM. For the same compound, the IC50 at 72 h in data set [1] and in data set [2] was < 50 µM in each case. Besides, in data set [4], the CC50 at 48 h was determined as 25.1 ± 1.6 µM.

Regarding `C=C1CC[C@H]2C(c3cc(Br)ccc3O)=NO[C@]2(C)CC[C@@H]2[C@@H]1CC2(C)C` [Compound 18b, 4-bromo-2-((3aS,6aS,8aR,10aR)-8,8,10a-trimethyl-6-methylene-3a,5,6,6a,7,8,8a,9,10,10a-decahydro-4H-cyclobuta [5,6]cyclonona [1,2-d]isoxazol-3-yl)phenol], the IC50 in data set [7] was 50 to 100 µM; in data set [8] it was 50 to 100 µM; in data set [3], > 50 µM; in data set [5] it was > 50 µM. The IC50 at 72 h in data set [1] and in data set [2] was 50 to 100 µM in each case.

For the compound `CC1(C)C[C@H]2[C@H]1CC[C@@]1(C)ON=C(Br)[C@@H]1CC[C@@]21CC(Br)=NO1` [Compound 28, (3aR,6R,6aS,8aR,10aR)-3,3′-Dibromo-8,8,10a-trimethyl-3a,4,5,6a,7,8,8a,9,10,10a-decahydro-4′H-spiro[cyclobuta [5,6]cyclonona [1,2-d]isoxazole-6,5′-isoxazole]], the IC50 in data set [7] was 50 to 100 µM; in data set [8], 50 to 100 µM; in data set [3] it was > 50 µM; in data set [5], > 50 µM; in data set [6], > 8.7 µM. Moreover, the IC50 at 72 h in data set [1] and in data set [2] was 50 to 100 µM each time. The compound also showed a CC50 at 48 h in data set [4] of 13.8 ± 1.2 µM.

`CC1=CCCC2(CC(c3cc(Br)ccc3O)=NO2)C2CC(C)(C)C2CC1` [Compound 18a, 4-Bromo-2-((1S,2R,9R,E)-6,10,10-trimethyl-4′H-spiro[bicyclo [7.2.0]undecane-2,5′-isoxazol]-5-en-3′-yl)phenol]: the IC50 at 72 h in data set [1] and in data set [2] was > 50 µM each time. Also, the IC50 in data set [3] is > 50 µM; in data set [5] it was > 50 µM; in data set [6], 4.78 ± 0.6 µM. Moreover, the CC50 at 48 h in data set [4] stood at 25.1 ± 1.8 µM.

For `C/C1=C\CC[C@@]2(CC(c3ccccc3)=NN2c2ccccc2)[C@H]2CC(C)(C)[C@@H]2CC1` [Compound 22a, (1S,2R,9R,E)-6,10,10-Trimethyl-2′,5′-diphenyl-2′,4′-dihydrospiro[bicyclo [7.2.0]undecane-2,3′-pyrazol]-5-ene], the IC50 in data set [7] was 50 to 100 µM; in data set [8], 50 to 100 µM; in data set [3], > 50 µM; in data set [5], > 50 µM; in data set [6], 72.7 ± 9.2 µM. Further, the IC50 at 72 h in data set [1] and in data set [2] was 50 to 100 µM each time. In data set [4], this compound showed a CC50 at 48 h of 170 ± 12.1 µM.

In the case of `C=C1CC[C@@H]2C(c3ccc(Cl)cc3)=NO[C@@]2(C)CC[C@@H]2[C@@H]1CC2(C)C` [Compound 16b, (3aR,6aS,8aR,10aS)-3-(4-chlorophenyl)-8,8,10a-trimethyl-6-methylene-3a,5,6,6a,7,8,8a,9,10,10a-decahydro-4H-cyclobuta [5,6]cyclonona [1,2-d]isoxazole], the IC50 at 72 h in data set [1] and in data set [2] was > 50 µM each time. The IC50 in data set [3] was > 50 µM; in data set [5] it was > 50 µM; in data set [6] it was 16.8 ± 2.2 µM. In data set [4], this compound gave a CC50 at 48 h of 20.2 ± 1.9 µM.
